Measurements reported in patent US20240158750A1, “STROMA-FREE NK CELL DIFFERENTIATION FROM HUMAN PLURIPOTENT STEM CELLS” (The Children's Medical Center Corporation, priority 2021, published 2024).

Assays:
[1] = system: class I HDAC (e.g., HDAC1, HDAC2, HDAC3); details: cited from earlier work
MDA-MB-231 cells = details: in MDA-MB-231 cells; cited from earlier work
[2] = system: iPS-derived CD34+ hemogenic endothelial cells; experiment: Stroma-free differentiation on DLL4-coated plates; assay type: cell-based, human
Description: FIG. 2 is a series of flow cytometry plot showing cells produced from a stroma-free differentiation protocol, which can be used to more specifically generate T or NK cells after 5 weeks. The culture conditions for T cells included: (i) EB-derived CD34^+ hemogenic endothelium (HE) on DLL4 coating (10 μg/ml), and (ii) IL-7 (50 ng/ml), SCF (100 ng/ml), Flt3 (100 ng/ml), and TPO (50 ng/ml, first 2 weeks). For more details concerning the stroma-free T cell differentiation protocol, see, e.g., International PCT publication WO 2021/150919, the content of which is incorporated herein by reference in its entirety. The culture conditions for NK cells included: EB-derived CD34^+ hemogenic endothelium (HE) on DLL4 coating (5 μg/ml), IL7 (10 ng/ml), SCF (50 ng/ml), and Flt3 (50 ng/ml).
Hemogenic CD34^+ endothelial cells were first derived from iPS (Example 2). The iPS-derived CD34^+ hemogenic endothelial cells were cultured on tissue culture plates coated with Notch ligands (e.g., DLL4; e.g., 5 μg/ml or 10 μg/ml in PBS, 3 hours in room temperature) using media containing a cocktail of growth factors (e.g., Flt3, SCF, IL7). […]

[3] = system: iPSC-derived CD34+CD45+ HSPCs; experiment: ATAC-seq of iPSC-derived CD34+CD45+ HSPCs treated during EHT; assay type: cell-based, human; details: 500 nM or 1 μM during conversion of HE into HSPCs for 5 days, versus DMSO
Description: FIGS. 6A-6C are a series of schematics and graphs showing that G9a modulates chromatin accessibility of lymphoid genes. FIG. 6A is a schematic showing the experimental design. FIG. 6B is a heatmap showing assay for transposase-accessible chromatin using sequencing (ATAC-seq) peaks enriched in iPSC-derived CD34+CD45+ HSPCs that were treated with control vehicle (“DMSO”), 500 nM of UNC0224 (“UNC low”), or 1 μM of UNC0224 (“UNC high”) during the conversion of CD34+CD45− HE into CD34+CD45+ HSPCs for 5 days; 5 peaks are shown, labeled K1-K5.
FIGS. 6A-6C show the mechanism by which G9a (EHMT2) regulates lymphoid fate decision in iPSC-derived HSPCs (iPSC-HSPCs). The iPSCs were first differentiated into CD34+ HEs, and the cells were then treated with DMSO or G9a inhibitor UNC0224 during the EHT stage, which allowed the HEs to specify into CD34+CD45+ HSPCs. ATAC-seq analysis was then performed on these iPSC-HSPCs to detect ATAC peaks that indicated accessible chromatin regions (as indicated by higher ATAC-seq scores).

iPSC-derived EHT cells = experiment: RNA-seq of G9a-inhibitor treated EHT cells, PANTHER overrepresentation test; assay type: cell-based, human; details: for Client Text Box Input (fold Enrichment): UNC0224 treated vs control EHT cells
Description: RNA-seq analysis was performed on the same samples as in FIG. 6A.

G9a (EHMT2) = experiment: Stroma-free NK cell differentiation with CRISPRi G9a (EHMT2) knockdown; assay type: cell-based, human; details: G9a knockdown by Dox induced CRISPRi for 14 days, representative flow cytometry plot
Text: FIGS. 5A-5C are a series of schematics and graphs showing that G9a (also referred to herein as EHMT2) repression promoted NK cell differentiation. FIG. 5A is a schematic showing the experimental design. FIG. 5B is representative flow cytometry results showing the production of CD5-CD56+NK cells from control iPSCs or iPSCs with EHMT2 (G9a) knockdown by doxycycline (Dox) induced CRISPRi (see, e.g., SEQ ID NO: 50) for 14 days. […] FIG. 5C is a dot pot showing the frequencies of CD5-CD56+NK cells derived from control iPSCs or iPSCs with EHMT2 (G9a) knockdown (n=3, * P<0.05).
The iPSCs were then differentiated into CD34+HE cells and treated with Dox to induce G9a knockdown. The control or Dox treated cells were then differentiated into CD7+ lymphoid progenitors and eventually CD5-CD56+NK cells using the stroma-free methods described herein (see, e.g., Table 1).

Cn1cc(/C=C/C(=O)c2cccc(F)c2)cc1/C=C/C(=O)NO [MC1568]
inhibition of class I HDAC activity [1]: Class II HDAC (e.g., HDAC4 and HDAC5) inhibitor. Displays no inhibition of class I HDAC activity (e.g., HDAC1, HDAC2, HDAC3).

COc1cc2c(NC3CCN(CC4CCCCC4)CC3)nc(N3CCCN(C(C)C)CC3)nc2cc1OCCCN1CCCCC1 [UNC0631]
IC50 (MDA-MB-231 cells): 25 nM

COc1cc2c(NC3CCN(C4CCCCC4)CC3)nc(N3CCCN(C(C)C)CC3)nc2cc1OCCCN1CCCCC1 [UNC0646]
IC50 (MDA-MB-231 cells): 26 nM

DLL4: Notch ligand Delta-like-4, coated on tissue culture plates
lineage outcome of differentiation ([2]; higher concentration of DLL4 coating (e.g., 10 μg/ml)): promotes T cell differentiation | lineage outcome of differentiation ([2]; lower concentration of DLL4 coating (e.g., 5 μg/ml)): facilitates the generation of CD56^+ NK cells

COc1cc2c(NC3CCN(C)CC3)nc(N3CCCN(C)CC3)nc2cc1OCCCN(C)C [UNC0224]
ATAC-seq peaks upregulated in treated cells [3]: associated with genes that are responsible for lymphoid differentiation/function | Client Text Box Input (fold Enrichment) (iPSC-derived EHT cells; B cell mediated immunity (GO:0019724)): 7.3 | Client Text Box Input (fold Enrichment) (iPSC-derived EHT cells; T cell activation (GO:0042110)): 14.53 | Client Text Box Input (fold Enrichment) (iPSC-derived EHT cells; T cell differentiation (GO:0030217)): 18.46 | Client Text Box Input (fold Enrichment) (iPSC-derived EHT cells; adaptive immune response (GO:0002250)): 6.79 | Client Text Box Input (fold Enrichment) (iPSC-derived EHT cells; adaptive immune response based on somatic recombination of immune receptors built from immunoglobulin superfamily domains (GO:0002460)): 7.89 | Client Text Box Input (fold Enrichment) (iPSC-derived EHT cells; antigen processing and presentation (GO:0019882)): 29.42 | Client Text Box Input (fold Enrichment) (iPSC-derived EHT cells; cell activation (GO:0001775)): 5.69 | Client Text Box Input (fold Enrichment) (iPSC-derived EHT cells; cell-cell adhesion (GO:0098609)): 4.83 | Client Text Box Input (fold Enrichment) (iPSC-derived EHT cells; cellular component assembly (GO:0022607)): 2.21 | Client Text Box Input (fold Enrichment) (iPSC-derived EHT cells; cellular component biogenesis (GO:0044085)): 2.44 | Client Text Box Input (fold Enrichment) (iPSC-derived EHT cells; cellular component organization or biogenesis (GO:0071840)): 1.63 | Client Text Box Input (fold Enrichment) (iPSC-derived EHT cells; cellular protein-containing complex assembly (GO:0034622)): 4.21 | Client Text Box Input (fold Enrichment) (iPSC-derived EHT cells; gene expression (GO:0010467)): 1.58 | Client Text Box Input (fold Enrichment) (iPSC-derived EHT cells; immune effector process (GO:0002252)): 6.63 | Client Text Box Input (fold Enrichment) (iPSC-derived EHT cells; immune response (GO:0006955)): 2.87 | Client Text Box Input (fold Enrichment) (iPSC-derived EHT cells; immune system process (GO:0002376)): 2.61 | Client Text Box Input (fold Enrichment) (iPSC-derived EHT cells; immunoglobulin mediated immune response (GO:0016064)): 7.3 | Client Text Box Input (fold Enrichment) (iPSC-derived EHT cells; leukocyte activation (GO:0045321)): 6.09 | Client Text Box Input (fold Enrichment) (iPSC-derived EHT cells; leukocyte cell-cell adhesion (GO:0007159)): 15.11 | Client Text Box Input (fold Enrichment) (iPSC-derived EHT cells; leukocyte mediated immunity (GO:0002443)): 7.27 | Client Text Box Input (fold Enrichment) (iPSC-derived EHT cells; lymphocyte activation (GO:0046649)): 6.42 | Client Text Box Input (fold Enrichment) (iPSC-derived EHT cells; lymphocyte mediated immunity (GO:0002449)): 7.62 | Client Text Box Input (fold Enrichment) (iPSC-derived EHT cells; positive regulation of T cell activation (GO:0050870)): 22.09 | Client Text Box Input (fold Enrichment) (iPSC-derived EHT cells; positive regulation of biological process (GO:0048518)): 2.02 | Client Text Box Input (fold Enrichment) (iPSC-derived EHT cells; positive regulation of cell activation (GO:0050867)): 6.29 | Client Text Box Input (fold Enrichment) (iPSC-derived EHT cells; positive regulation of cell adhesion (GO:0045785)): 17.95 | Client Text Box Input (fold Enrichment) (iPSC-derived EHT cells; positive regulation of cell-cell adhesion (GO:0022409)): 21.54 | Client Text Box Input (fold Enrichment) (iPSC-derived EHT cells; positive regulation of cellular process (GO:0048522)): 2.11 | Client Text Box Input (fold Enrichment) (iPSC-derived EHT cells; positive regulation of immune system process (GO:0002684)): 5.43 | Client Text Box Input (fold Enrichment) (iPSC-derived EHT cells; positive regulation of leukocyte activation (GO:0002696)): 6.29 | Client Text Box Input (fold Enrichment) (iPSC-derived EHT cells; positive regulation of leukocyte cell-cell adhesion (GO:1903039)): 22.09 | Client Text Box Input (fold Enrichment) (iPSC-derived EHT cells; positive regulation of lymphocyte activation (GO:0051251)): 6.53 | Client Text Box Input (fold Enrichment) (iPSC-derived EHT cells; production of molecular mediator of immune response (GO:0002440)): 7.58 | Client Text Box Input (fold Enrichment) (iPSC-derived EHT cells; protein-containing complex assembly (GO:0065003)): 3.99 | Client Text Box Input (fold Enrichment) (iPSC-derived EHT cells; protein-containing complex subunit organization (GO:0043933)): 3.43 | Client Text Box Input (fold Enrichment) (iPSC-derived EHT cells; regulation of T cell activation (GO:0050863)): 16.25 | Client Text Box Input (fold Enrichment) (iPSC-derived EHT cells; regulation of cell activation (GO:0050865)): 5.42 | Client Text Box Input (fold Enrichment) (iPSC-derived EHT cells; regulation of cell adhesion (GO:0030155)): 10.77 | Client Text Box Input (fold Enrichment) (iPSC-derived EHT cells; regulation of cell-cell adhesion (GO:0022407)): 15.11 | Client Text Box Input (fold Enrichment) (iPSC-derived EHT cells; regulation of immune system process (GO:0002682)): 4.07 | Client Text Box Input (fold Enrichment) (iPSC-derived EHT cells; regulation of leukocyte activation (GO:0002694)): 5.49 | Client Text Box Input (fold Enrichment) (iPSC-derived EHT cells; regulation of leukocyte cell-cell adhesion (GO:1903037)): 16.89 | Client Text Box Input (fold Enrichment) (iPSC-derived EHT cells; regulation of lymphocyte activation (GO:0051249)): 5.82 | RNA-seq gene expression change (iPSC-derived EHT cells; treated versus control EHT cells): upregulation of genes associated with lymphoid development and function

SEQ ID NO: 50: G9a CRISPRi gRNA: AATGGCCAAAAAGCATGTAG (chemistry not given here)
CD5-CD56+NK cells (G9a (EHMT2)): 64.7%
